# From patent publication US7371780B2, “Use of calphostin C to treat drug-resistant tumor cells” (priority 2003, dated 2008)
# What was measured:
# [1] = test system: MCF-7DOX (doxorubicin-resistant) cells; experiment: Clonogenic assay, MCF-7DOX cells; type: cell-based, human
# Description: (§1) The breast cancer cell line MCF-7 (lot HTB-22) was obtained from the American […] (ATCC) and maintained in Dulbecco's H21 medium (MEM) supplemented with 10% Fetal Bovine Serum (FBS) (HyClone, Logan, Utah) in a humidified atmosphere containing 5% CO2 at 37° C. To establish drug resistant cell lines, MCF-7 cells were grown in the presence of either paclitaxel or doxorubicin, beginning at a concentration 1000-fold below that required to kill 50% of the cells (the IC50). The drug concentration was increased 3-fold every two weeks (two passages), with an aliquot of the cells removed for storage in liquid nitrogen before each increase in concentration. Dose escalation continued until all cells died, after which the cells able to tolerate the highest concentration of drug were thawed for subsequent study. In this way, paclitaxel-resistant (MCF-7TAX) and doxorubicin-resistant (MCF-7DOX) cell lines were established. The IC50 for each drug was determined using a clonogenic assay as outlined below. The drug resistant cells were kept in culture in the presence of the maximally tolerated drug dose. Before each experiment, the cell lines were grown for two days in the absence of drug after which fresh medium containing either calphostin C (Sigma Laboratories, Oakville, ON), doxorubicin (Adriamycin PFS®, USP, Mississauga, ON) or paclitaxel (Taxol, Bristol-Myers Squibb, Montreal, QC) was added at the concentrations indicated.
# The sensitivity of MCF-7, MCF-7TAX and MCF-7DOX cells to calphostin C, paclitaxel or doxorubicin was determined using a clonogenic assay. Briefly, 2.5×10^5 cells were seeded into 25 cm^2 tissue culture flasks in Dulbecco's H21 medium supplemented with 10% FBS. The cells were allowed to grow overnight, after which the medium was removed and replaced with medium containing varying concentrations of paclitaxel, doxorubicin, or calphostin C (after 2 hours of light exposure to activate the molecule). After 24 hours, the medium (including any floating cells) was transferred to 14 ml screw-capped tubes and centrifuged at 1000 rpm for 10 min. The adherent cells were then released from their flasks by trypsin treatment and suspended in 10 ml of H21 medium. The cell suspension was transferred to the previous tube and all cells harvested by centrifugation. The cell pellet was washed one more time with drug-free medium and resuspended in 300 μl of normal growth medium containing FBS. The cells were then added to 2.7 ml of a methylcellulose solution. The methylcellulose medium was prepared by combining 70 ml of a 2.6% (w/v) methylcellulose solution [Shin-Etsu Chemical Co., Tokyo, Japan] in Iscove's medium (Princess Margaret Hospital, Toronto, ON) with 30 ml of FBS. Three ml syringes equipped with a 16-gauge needle were used for transferring the viscous medium. The mixture was vigorously vortexed for 10 s to ensure an even distribution of cells within the viscous medium. The vortexed samples were then allowed to sit for 30 min to remove air bubbles. A 1.2 ml aliquot of the cell suspension was then transferred to a 6-well plate and the cells allowed to grow until colonies of >50 cells were visible by light microscopy for the various cell lines in the absence of drug. The colonies present in 5 randomly selected fields were then counted by visual inspection.
# Calphostin C (Sigma Laboratories, Oakville, ON) was prepared as a 100 μM stock solution in dimethylsulfoxide (Sigma Laboratories, Oakville, ON) and stored at −70° C. in 100 μl aliquots. […]
# MCF-7DOX cells = experiment: Drug uptake, MCF-7DOX; type: cell-based, human
# Description: FIG. 5 illustrates the effect of calphostin C (Cal-C) on drug uptake in MCF-7 (square symbols), MCF-7TAX (diamond symbols) and MCF-7DOX (triangular symbols) cells. After one-day growth, the cells were left untreated (closed symbols) or treated with 100 nM calphostin C for 2 h with light activation (open symbols). Cells were then washed and the medium replaced with medium containing 2 μM of doxorubicin (A) or [^3H]-paclitaxel (B). The cells were then trypsinized and drug accumulation measured by flow cytometry (A) or liquid scintillation counting (B) at indicated time points. The figures are representative of three independent experiments.
# MCF-7TAX cells = experiment: Cytoplasmic shrinkage by hematoxylin/eosin staining, MCF-7TAX; type: cell-based, human
# Description: For staining with hematoxylin and eosin, cells were grown in a six-well culture plate with each well containing a Snowcoat X-Tra™ microscope slide (Surgipath Laboratories, MB) immersed in 3 ml of H21 medium. When the cells reached 50% confluence, they were treated with 0-300 nM calphostin C, followed by a 2 hour exposure of the cultures to fluorescent light as described above. After light activation, the cells were placed in a 37° C. humidified incubator with 5% CO2 and incubated for an additional 22 hours. The cells were then stained with hematoxylin and eosin using a previously described procedure. Briefly, the media was removed from cell cultures and the cells that remained adhered to the slides were washed with PBS, fixed in formalin:acetone (1:2) for 2 min, and allowed to air dry for 10 min. After washing with distilled water, 250 μl of hematoxylin solution (BDH Chemicals, Toronto, ON) was placed on each slide and allowed to incubate with the cells for 5 min. The slides were then washed with distilled water, Scott's tap water (20 g MgSO4.7H2O, 1.5 g NaHCO3 in 1 L H2O), and a final wash with distilled water. The cells on the slides were then stained for 5 min in 250 μl of eosin solution (100 ml of 1% eosin, 10 ml of 1% phyloxine, 4 ml of glacial acetic acid, and 780 ml of 95% ethanol). The cells were then dehydrated by washing three times in 95% ethanol and twice in 100% ethanol. The small slide was then mounted on a standard microscope glass slide, and 10 randomly selected fields were viewed at 100× magnification and photographed. For each concentration of calphostin C, the total number of dead cells in each field was ascertained and expressed relative to the total number of cells in the field.
# [2] = mice, cited from earlier work
# [3] = test system: Chinese hamster ovary (CHO) cells; experiment: Death and cytoplasmic vacuolization, CHO; type: cell-based; conditions: data not shown
# [4] = test system: MCF-7TAX (paclitaxel-resistant) cells; experiment: Clonogenic assay, MCF-7TAX cells; type: cell-based, human; conditions: MCF-7TAX cells; 24 h drug; calphostin C light-activated 2 h
# Description: as §1
# The sensitivity of MCF-7, MCF-7TAX and MCF-7DOX cells to calphostin C, paclitaxel or doxorubicin was determined using a clonogenic assay. Briefly, 2.5×10^5 cells were seeded into 25 cm^2 tissue culture flasks in Dulbecco's H21 medium supplemented with 10% FBS. The cells were allowed to grow overnight, after which the medium was removed and replaced with medium containing varying concentrations of paclitaxel, doxorubicin, or calphostin C (after 2 hours of light exposure to activate the molecule). […] The colonies present in 5 randomly selected fields were then counted by visual inspection. […]
compound,measurement,setting,value
COc1c(C[C@@H](C)OC(=O)Oc2ccc(O)cc2)c2c3c(C[C@@H](C)OC(=O)c4ccccc4)c(OC)c(=O)c4c(O)cc(OC)c(c5c(OC)cc(O)c(c1=O)c52)c43 [calphostin C],IC50,"[1]; MCF-7DOX cells, 24 h drug, calphostin C light-activated 2 h",0.0642 µM
same,fold resistance / lower sensitivity compared to MCF-7 cells,[1]; MCF-7DOX vs MCF-7,approximately 5 fold
same,effect on paclitaxel uptake,MCF-7DOX cells; 100 nM calphostin C,little effect
same,effect on doxorubicin uptake,"MCF-7DOX cells; 100 nM calphostin C 2 h with light, then 2 μM doxorubicin",little ability to re-establish doxorubicin uptake
same,concentration required for complete cytoplasmic shrinkage,MCF-7TAX cells,300 nM
same,percentage of cells exhibiting cytoplasmic shrinkage,MCF-7TAX cells; 25 nM calphostin C,remained unchanged
same,percentage of cells exhibiting cytoplasmic shrinkage,MCF-7TAX cells; 50 nM calphostin C,23%
same,clearance rate t1/2,[2]; 40 mg/kg,1.52 h
same,plasma concentration reached without significant cytotoxicity,[2],2900 nM
same,induction of death and cytoplasmic vacuolization,[3],induce both death and cytoplasmic vacuolization
same,IC50,[4],0.0092 µM
